{"source": "patent US20240268419A1", "about": "“IgA PRODUCTION PROMOTING AGENT AND FEED COMPOSITION FOR PROMOTING IgA PRODUCTION” (Nippon Beet Sugar Manufacturing Co., Ltd., priority 2022, published 2024)", "test_system": "IgA production in the intestinal tract", "experiment": "IgA concentration in feces of suckling calves fed DFAIII (ELISA)", "type": "in vivo, Holstein calves", "conditions": "for IgA Concentration (mg/g feces): mean ± standard deviation", "from_the_text": "Twelve head of Holstein calves in suckling period as test subjects were divided into a control group (7 head) and a DFAIII feeding group (5 head). Colostrum was fed to the calves up to 6 days old after birth. In the DFAIII feeding group, 6 g each of difructose anhydride III (DFAIII) (manufactured by Nippon Beet Sugar Manufacturing Co., Ltd.; product name: Koushi no Mikata) was mixed with the colostrum and fed to the calves in the first and second colostrum feeding after birth (at 0 to 1 day old). From 7 days old, the 7 head of calves in suckling period in the control group were fed with a starter, which is a mixed feed for calf in suckling period (manufactured by Nippon Beet Sugar Manufacturing Co., Ltd.; product name: Start; component contents: protein 22%, total digestible nutrients 74%), and the 5 head of calves in suckling period in the DFAIII feeding group were fed with a feed (DFAIII-containing feed) in which DFAIII (manufactured by Nippon Beet Sugar Manufacturing Co., Ltd.) was added in an amount of 2.0 wt % to and mixed with the starter, by free feeding together with hay and water. The amount 2.0 wt % of DFAIII in the DFAIII-containing feed is calculated as the weight proportion (w/w %) of DFAIII relative to the total weight of the starter and DFAIII. From seven days old, 2 L of 15% milk substitute solution (without DFAIII) was further fed to the calves in suckling period twice a day.\nFresh feces were collected from the calves of each test group at 7 days old, 14 days old, 21 days old, and 28 days old. The IgA concentrations in feces were measured by the ELISA method using an IgA ELISA Quantitation Kit (manufactured by BETHYL Laboratories, Inc.). The IgA concentration in feces was expressed in a milligram amount of IgA per wet mass of the feces.", "data": [{"smiles": "OC[C@H]1O[C@@]2(CO[C@]3(CO)O[C@H](CO)[C@@H](O)[C@@H]3O2)[C@@H](O)[C@@H]1O", "note": "[DFAIII, di-D-fructofuranose 1, 2:2,3′ dianhydride]", "values": [{"measurement": "IgA Concentration (mg/g feces)", "setting": "7 days old, Holstein calves in suckling period, 6 g DFAIII in first and second colostrum feeding", "result": "0.65 ± 0.32", "unit": "mg/g feces"}, {"measurement": "IgA Concentration (mg/g feces)", "setting": "14 days old, 6 g DFAIII in colostrum x2, then starter with 2.0 wt % DFAIII from 7 days old, free feeding", "result": "1.19 ± 0.45", "unit": "mg/g feces"}, {"measurement": "IgA Concentration (mg/g feces)", "setting": "21 days old, 6 g DFAIII in colostrum x2, then starter with 2.0 wt % DFAIII from 7 days old, free feeding", "result": "2.60 ± 1.01", "unit": "mg/g feces"}, {"measurement": "IgA Concentration (mg/g feces)", "setting": "28 days old, 6 g DFAIII in colostrum x2, then starter with 2.0 wt % DFAIII from 7 days old, free feeding", "result": "1.01 ± 1.34", "unit": "mg/g feces"}, {"measurement": "IgA concentrations in feces in comparison with the control group", "setting": "DFAIII feeding group vs control group, Holstein calves in suckling period", "result": "statistically significantly higher"}]}]}
